The results in this text go back to patent publication US20170327559A1, “VIRAL INACTIVATION USING IMPROVED SOLVENT-DETERGENT METHOD” (Baxalta Incorporated, priority 2010, published 2017).

“And” between values parts separate entries of the source, which are not always exact repeats. Equal values may be shown once. Read-outs that look alike come from different tables or passages of the source.

Series [1] can be described thus: Temperature effects on solvent/detergent components before and after 0.2 μm filtration (HPLC). It counts as physicochemical. How it is done: In order to evaluate the influence of a lower temperature on the mixing time of solvent/detergent components, 50 mL solvent/detergent solutions were prepared by adding 0.3% (v/v) TNBP, 1.0% (v/v) polyoxyethylene octyl phenyl ether (TRITON® X-100) and 0.3% (v/v) polysorbate 80 sorbitan monooleate (TWEEN® 80) and stirring at 4±2° C. for 10, 20, or 30 minutes. As the solvent/detergent solution already contained 0.1% polysorbate 80 sorbitan monooleate (TWEEN® 80), the final concentration for this compound was of 0.4%. The concentration of TNBP and polyoxyethylene octyl phenyl ether (TRITON® X-100) were determined simultaneously by using C18 RP-HPLC with a refractive index detector (RID). The concentration of polysorbate 80 sorbitan monooleate (TWEEN® 80) was determined by C1 RP-HPLC using an evaporative light scattering detector (ELSD). For the HPLC analysis of TNBP and polyoxyethylene octyl phenyl ether (TRITON® X-100), an isocratic elution is employed using 68% methanol in water. In the assay of polysorbate 80 sorbitan monooleate (TWEEN® 80), a gradient elution from 60% methanol in water to 100% methanol is used.
To evaluate the impact of the temperature toward a potential retention of solvent/detergent conponents during the filtration step, 50 mL solvent/detergent solutions were prepared by adding 0.3% (v/v) TNBP, 1.0% (v/v) polyoxyethylene octyl phenyl ether (TRITON® X-100) and 0.3% (v/v) polysorbate 80 sorbitan monooleate (TWEEN® 80), stirring at 4±2° C. for 30 minutes and the concentration of each component was measured as described above. The solvent/detergent solutions were then processed under three different temperature conditions: 22.5° C. with a warm up period of about 8 hours; 22.5° C. with a warm up period of about 2 hours; and 4° C. without any warm-up or preheating step. At the end of the incubation period, samples were filtrated through a 0.2 μm filter and TNBP, polyoxyethylene octyl phenyl ether (TRITON® X-100) and polysorbate 80 sorbitan monooleate (TWEEN® 80) concentrations were measured by HPLC.

For “polyoxyethylene octyl phenyl ether [TRITON X-100]”, the S/D component concentration was 1.2% and 1.1%; the “S/D component concentration, Mean” value is 1.2 ± 0.06%. In series [1], the “S/D component concentration after 0.2 μm filtration” value was 1.00% and 0.90% and 1.10%; the “S/D component concentration after 0.2 μm filtration, Mean” value was 1.03% and 0.97% and 1.00%; the “S/D component concentration before 0.2 μm filtration” value was 0.80% and 1.00%; the “S/D component concentration before 0.2 μm filtration, Mean” value is 1.00% and 0.93%.

Take “polysorbate 80 sorbitan monooleate [Tween 80]”: the “S/D component concentration, Mean” value (mean of 10, 20, 30 min stirring at 4±2° C.) stood at 0.42 ± 0.02%. Further, the S/D component concentration amounted to 0.42% (stirring at 4±2° C. for 10 min), 0.40% (stirring at 4±2° C. for 20 min) and 0.44% (stirring at 4±2° C. for 30 min). Moreover, the “S/D component concentration after 0.2 μm filtration, Mean” value was 0.41% in series [1] (4° C./2 H, n = 3); 0.41% in series [1] (22.5° C./2 H, n = 3); 0.39% in series [1] (22.5° C./8 H, n = 3). Moreover, the “S/D component concentration before 0.2 μm filtration, Mean” value in series [1] (4° C./2 H, n = 3) stood at 0.40%; in series [1] (22.5° C./2 H, n = 3) it was 0.41%; in series [1] (22.5° C./8 H, n = 3), 0.38%. Also, the “S/D component concentration after 0.2 μm filtration” value in series [1] (4° C./2 H, runs 1-3) was 0.40% and 0.41%; in series [1] (22.5° C./2 H, runs 1-3), 0.38% and 0.44% and 0.41%; in series [1] (22.5° C./8 H, runs 1-3), 0.40% and 0.39% and 0.37%. Further, the “S/D component concentration before 0.2 μm filtration” value in series [1] (4° C./2 H, runs 1-3) is 0.38% and 0.40% and 0.42%; in series [1] (22.5° C./2 H, runs 1-3) it was 0.41% and 0.42%; in series [1] (22.5° C./8 H, runs 1-3) it was 0.33% and 0.39% and 0.42%.
